Earlier results, collected in patent US7601526B2 (priority 2004, dated 2009).

System: F. tularensis

SMILES	type of antibacterial action against F. tularensis
O=C(N[C@H](CO)[C@H](O)c1ccc([N+](=O)[O-])cc1)C(Cl)Cl [chloramphenicol]	bacteriostatic
[H]/N=C(/N)N[C@H]1[C@H](O)[C@@H](O)[C@H](O[C@@H]2O[C@@H](C)[C@](O)(C=O)[C@H]2O[C@@H]2O[C@@H](CO)[C@H](O)[C@@H](O)[C@@H]2NC)[C@@H](N/C(N)=N\[H])[C@@H]1O [Streptomycin]	bactericidal
